The values below are quoted from earlier work in patent US20220000962A1, “PLANT-BASED BIOLOGICALLY ACTIVE SUBSTANCE HAVING A POLYPHARMACOLOGICAL EFFECT” (priority 2015, published 2022).

The series relates to CMV. Conditions: tricin obtained from Sasa albo-marginata.

With `COc1cc(-c2cc(=O)c3c(O)cc(O)cc3o2)cc(OC)c1O` [tricin, 5,7,4-trihydroxy-3′,5′-dimethoxyflavone], the “concentration which inhibits development of CMV infection on the cellular level for 50%” value is 0.139 µg/mL. The IC50 (read-out: concentration which inhibits development of CMV infection on the cellular level for 50%) was 420 nM.
